One assay relates to E. coli ATCC 25922 MCR-1. Type of assay: cell-based, Escherichia coli. To be noted: E. coli ATCC 25922 MCR-1 (colistin resistant). How it is done: (§1) Minimum inhibitory concentration (MIC) was determined by broth microdilution according to CLSI guidelines. Blood agar plates were inoculated with glycerol stocks of Escherichia coli ATCC 25922, E. coli ATCC 25922 MCR-1, E. coli MCR-1 (clinical isolate from Utrecht Medical Center, NL), E. coli EQAS MCR-2 (clinical isolate from Wageningen University and Research, NL), Kiebsielia pneumoniae ATCC 11228, K. pneumoniae ATCC 13883, K. pneumonia 2048 (clinical isolate from Vrije Universiteit Amsterdam Medical Center, NL), K. pneumonia JS-123 (clinical isolate from Utrecht Medical Center, NL), Acinetobacter baumannii ATCC 17961, A. baumannil ATCC 17978, A. baumannii 2018-006 (clinical isolate from Rijksinstituut voor Volksgezondheid en Milieu, NL), A. baumannii MDR (clinical isolate from Vrije Universiteit Amsterdam Medical Center, NL), Pseudomonas aeruginosa ATCC 27853, P. aeruginosa PAO1, P. aeruginosa NRZ-03961 (Reference strain from Das Nationale Referenzzentrum für gramnegative Krankenhauserreger, DE), P. aeruginosa M-120 (clinical isolate from Leiden University Medical Center, NL) and Staphylococcus aureus USA300 (clinical isolate from Texas Children's Hospitalm, USA). E. coli 25922 MCR1 was grown on LB agar supplemented with kanamycin. The inoculated agar plates were then incubated for 16 hours at 37° C. Individually grown colonies were subsequently used to inoculate 3 mL aliquots of TSB that were then incubated at 37° C. with shaking at 220 rpm. In parallel, the compounds to be assessed were serially diluted with Mueller-Hinton broth (MHB) in polypropylene 96-well plates (50 μL in each well). Once the OD600 of the bacterial suspensions reached 0.5, the bacteria were diluted with MHB (final concentration 2×10^5 CFU mL^−1) and added to the microplates containing the test compounds (50 μL to each well, final volume: 100 μL). The well-plates were sealed with an adhesive membrane and after 16 hours of incubation at 37° C. with shaking at 220 rpm the wells were visually inspected for bacterial growth. MIC values were defined as the lowest concentration of the compound that prevented visible growth of bacteria.
(§2) In the table above, “MCR” denotes that one of the MCR family of genes, which confers colistin resistance, is present in the bacterial strain. Thus, E. coli ATCC 25922 MCR-1, E. coli MCR-1 and E. coli EQAS MCR-2 are each colistin resistant. […] Therefore, laterocidamide may overcome some of the challenges faced due to antibiotic resistance.

For a further assay, the system named is E. coli MCR-1. Type of assay: cell-based, Escherichia coli. To be noted: E. coli MCR-1 clinical isolate (colistin resistant). The protocol:
as §1, §2

The subject of another assay is E. coli EQAS MCR-2. The class given is cell-based, Escherichia coli. The following applies: E. coli EQAS MCR-2 clinical isolate (colistin resistant). How it is done: as §1, §2
The subject of assay [1] is Pseudomonas aeruginosa ATCC 27853. The class given is cell-based. The method in brief: (§3)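 Broth microdilution in MHB per CLSI; inoculum 2×10^5 CFU mL^−1 from log-phase TSB cultures at OD600 0.5. Plates incubated 16 hours at 37° C with shaking at 220 rpm. MIC is the lowest concentration preventing visible growth.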
Assay [2] concerns Acinetobacter baumannii ATCC 17961. Type of assay: cell-based. The method in brief:
as §3

Assay [3] relates to Staphylococcus aureus USA300. The class given is cell-based. The method in brief:
as §3

The subject of assay [4] is Escherichia coli ATCC 25922. Type of assay: cell-based. The method in brief: as §3
The subject of the next assay is A. baumannii MDR. Type of assay: cell-based, Acinetobacter baumannii. To be noted: A. baumannii MDR clinical isolate. The method, boiled down: as §3
In another assay the test system is A. baumannii ATCC 17978. Type of assay: cell-based, Acinetobacter baumannii. The method, boiled down:
as §3

For another assay, the system named is A. baumannii 2018-006. The class given is cell-based, Acinetobacter baumannii. The method, boiled down: as §3
The subject of a further assay is K. pneumoniae ATCC 13883. Type of assay: cell-based, Klebsiella pneumoniae. The method in brief:
as §3

The next assay has as its system K. pneumoniae 2048. Type of assay: cell-based, Klebsiella pneumoniae. The method in brief: as §3
For a further assay, the system named is K. pneumoniae ATCC 11228. Type of assay: cell-based, Klebsiella pneumoniae. The method in brief:
as §3

The next assay relates to K. pneumoniae JS-123. Type of assay: cell-based, Klebsiella pneumoniae. The method in brief:
as §3

The subject of another assay is P. aeruginosa PAO1. Type of assay: cell-based, Pseudomonas aeruginosa. The method in brief:
as §3

The next assay relates to P. aeruginosa M-120. The class given is cell-based, Pseudomonas aeruginosa. The method in brief:
as §3

The next assay deals with P. aeruginosa NRZ-03961. Type of assay: cell-based, Pseudomonas aeruginosa. The method, boiled down:
as §3

≈ marks a conversion by molar mass, not a printed value. Read-outs that look alike come from different tables or passages of the source. Some results are limits rather than exact numbers.

colistin [reference compound]: the “Minimum inhibitory concentration (MIC)” value in the assay on E. coli ATCC 25922 MCR-1 is 2 to 4 µg/mL; with E. coli MCR-1, 2 to 4 µg/mL; in the assay with E. coli EQAS MCR-2 it was 2 to 4 µg/mL; in assay [1] (P. aeruginosa ATCC 27853) it was 1 µg/mL; in assay [2] (A. baumannii ATCC 17961) it was not above 0.5 µg/mL; in assay [3] (S. aureus USA300 (Gram-positive)), more than 64 µg/mL. Besides, the “Minimum inhibitory concentration (MIC)” value in assay [4] (E. coli ATCC 25922) is 0.25 to 0.5 µg/mL; with A. baumannii MDR it was not above 0.5 µg/mL; in the assay on A. baumannii ATCC 17978 (A. baumannii ATCC 17978), not above 0.5 µg/mL; in the assay with A. baumannii 2018-006 (A. baumannii 2018-006 clinical isolate), not above 0.5 µg/mL; in the assay with K. pneumoniae ATCC 13883 (K. pneumoniae ATCC 13883), 1 µg/mL; in the assay on K. pneumoniae 2048 (K. pneumoniae 2048 clinical isolate), 2 µg/mL. Further, the “Minimum inhibitory concentration (MIC)” value in the assay with K. pneumoniae ATCC 11228 (K. pneumoniae ATCC 11228) was not above 0.5 µg/mL; with K. pneumoniae JS-123 (K. pneumoniae JS-123 clinical isolate), not above 0.5 µg/mL; in the assay with P. aeruginosa PAO1 (P. aeruginosa PAO1) it was not above 0.5 µg/mL; in the assay with P. aeruginosa M-120 (P. aeruginosa M-120 clinical isolate) it was 1 µg/mL; with P. aeruginosa NRZ-03961 (P. aeruginosa NRZ-03961) it was less than 0.5 µg/mL.

For `CCC(C)CCC(=O)N[C@H](CC(N)=O)C(=O)N[C@H](Cc1ccc(O)cc1)C(=O)N[C@H](Cc1c[nH]c2ccccc12)C(=O)N[C@H](CCCN)C(=O)N[C@@H](CCCN)C(=O)NCC(=O)N[C@H](CCCN)C(=O)N[C@@H](Cc1c[nH]c2ccccc12)C(=O)N[C@H]1COC(=O)[C@H](CO)NC(=O)CNC(=O)[C@H]([C@@H](C)CC)NC1=O` (single isomer, unassigned) [Ser9-Brevicidine], the “Minimum inhibitory concentration (MIC)” value with E. coli ATCC 25922 MCR-1 is 4 µg/mL (≈ 2.66 µM); with E. coli MCR-1, 2 µg/mL (≈ 1.33 µM); in the assay on E. coli EQAS MCR-2, 4 to 8 µg/mL; in [1] (ATCC 27853), 1 µg/mL (≈ 0.664 µM); in [2] (ATCC 17961), 0.5 to 1 µg/mL; in assay [3] (USA300) it was more than 64 µg/mL. Also, the “Minimum inhibitory concentration (MIC)” value in assay [4] (ATCC 25922) is 4 µg/mL (≈ 2.66 µM); in the assay with A. baumannii MDR it was 1 to 2 µg/mL; in the assay on A. baumannii ATCC 17978 (ATCC 17978) it was 2 µg/mL (≈ 1.33 µM); in the assay with A. baumannii 2018-006 (2018-006) it was 2 µg/mL (≈ 1.33 µM); with K. pneumoniae ATCC 13883 (ATCC 13883), 2 µg/mL (≈ 1.33 µM); in the assay with K. pneumoniae 2048 (2048), 4 µg/mL (≈ 2.66 µM). Further, the “Minimum inhibitory concentration (MIC)” value was 2 µg/mL (≈ 1.33 µM) in the assay with K. pneumoniae ATCC 11228 (ATCC 11228); 2 µg/mL (≈ 1.33 µM) in the assay on K. pneumoniae JS-123 (JS-123); 2 to 4 µg/mL in the assay with P. aeruginosa PAO1 (PAO1); 2 µg/mL (≈ 1.33 µM) in the assay on P. aeruginosa M-120 (M-120); 4 µg/mL (≈ 2.66 µM) in the assay on P. aeruginosa NRZ-03961 (NRZ-03961).

These data come from US20240140991A1, “ANTIBIOTIC NATURAL PRODUCT ANALOGUES” (THE QUEEN'S UNIVERSITY OF BELFAST, priority 2021, published 2024).
